Patent US20170174632A1, “4-OXO-1, 4-DIHYDROQUINOLINE-3-CARBOXAMIDE AS SELECTIVE LIGAND FOR CANNABINOID RECEPTOR 2 FOR DIAGNOSIS AND THERAPY” (priority 2014, published 2017)

Tests used:
CB2 [1] = biological target: T1, CB2 (Homo sapiens, UniProt P34972); test: In vitro competitive binding assay, [3H]CP55,940 displacement, hCB2 membranes; parameters: purchased PerkinElmer; host or cells: CHO-K1 cells, stably transfected (membrane preparation); details: CHO-K1 membranes with human CB2, 1.4 nM [3H]CP55,940, Cheng-Prusoff, three experiments in triplicates; read-out: KiCB2
T1 sequence (P34972 whole entry): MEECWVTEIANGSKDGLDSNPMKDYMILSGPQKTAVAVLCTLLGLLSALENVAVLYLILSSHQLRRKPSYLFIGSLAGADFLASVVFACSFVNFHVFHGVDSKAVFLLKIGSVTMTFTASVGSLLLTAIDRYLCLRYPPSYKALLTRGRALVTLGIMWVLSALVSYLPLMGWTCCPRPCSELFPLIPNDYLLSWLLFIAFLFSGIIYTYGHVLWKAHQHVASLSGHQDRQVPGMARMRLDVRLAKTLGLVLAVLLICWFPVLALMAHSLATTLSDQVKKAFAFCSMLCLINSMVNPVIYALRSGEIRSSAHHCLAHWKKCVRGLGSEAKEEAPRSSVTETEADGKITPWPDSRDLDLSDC
Protocol: The following test was carried out in order to determine the binding affinity of the compounds of formula I towards CB2 and CB1:
Competitive binding reactions were initiated by the addition of a membrane preparation obtained from CHO-K1 cells stably transfected with human CB1 and CB2, respectively, from PerkinElmer (0.5 pig/tube for hCB1 and hCB2) into incubation tubes. As displacer, 1.4 nM [^3H]CP55,940 (PerkinElmer) was used and 6 to 10 concentrations (ranging from 1 pM to 10 μM) of displacing ligand (compound to test) in assay buffer (50 mM TRIS, 1 mM EDTA, 3 mM MgCl2 and 0.05% bovine serum albumin, pH adjusted to 7.4) were added. Nonspecific binding was defined by the presence of 5 μM WIN-55212-2. After incubation at 30° C. for 90 min reactions were terminated by the addition of 3 mL ice cold assay buffer followed by rapid vacuum filtration through a Whatman GF/C filter (pre-soaked for 2 h in 0.05% polyethylenimine in water) and washed twice with 3 mL ice cold assay buffer. The bound activity was counted in a Beckman LS 6500 Liquid Scintillation Counter after adding 3 mL scintillation cocktail (Ultima Gold, Perkin Elmer) and thorough shaking. For each mean value three experiments, each in triplicates, were performed. K, values were determined with the equation from Cheng-Prusoff.

[2] = cited from earlier work
[3] = in vitro transport assay, radiolabelled KD2; cited from earlier work
CB2 [4] = biological target: T2, CB2 (Rattus norvegicus, UniProt Q9QZN9); parameters: host or cells: rats in vivo (Mu et al., J. Neurochem. 2013); details: cited from earlier work
T2 sequence (Q9QZN9 1-360): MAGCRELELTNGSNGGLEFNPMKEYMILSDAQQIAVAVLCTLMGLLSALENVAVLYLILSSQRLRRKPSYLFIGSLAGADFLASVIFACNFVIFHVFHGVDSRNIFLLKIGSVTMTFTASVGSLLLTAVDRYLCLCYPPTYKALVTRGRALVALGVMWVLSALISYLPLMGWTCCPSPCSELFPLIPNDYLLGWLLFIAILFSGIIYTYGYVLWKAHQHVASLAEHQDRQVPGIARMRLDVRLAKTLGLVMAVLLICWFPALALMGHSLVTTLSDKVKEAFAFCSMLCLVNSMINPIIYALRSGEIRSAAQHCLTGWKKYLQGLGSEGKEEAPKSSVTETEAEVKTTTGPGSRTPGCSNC

[5] = Distribution coefficient (log D), shake-flask method; assay type: physicochemical; details: octanol / phosphate buffer pH 7.4, shake-flask, radiotracer
Protocol: The partition coefficient D was determined by the shake-flask method. Octanol saturated with phosphate buffer pH 7.4 (0.5 mL) and phosphate buffer saturated with octanol (0.5 mL) were mixed with radiotracer of interest (^˜3 MBq). The samples were shaken for 15 min and then centrifuged at 5000 g for 5 min. Radioactivity in each phase was measured in a gamma counter (Wizard, PerkinElmer). Log D is expressed as the logarithm of the ratio between the radioactivity concentrations (Bq/mL) of the octanol and the buffer phase.

CB2 [6] = biological target: T3, CB2 (Mus musculus, UniProt P47936); test: LPS mouse model of neuroinflammation, small animal PET brain scans; assay type: in vivo, CD1 male mice
T3 construct: from tissue; host or cells: brain of living CD1 male mice (PET)
T3 sequence (P47936 whole entry): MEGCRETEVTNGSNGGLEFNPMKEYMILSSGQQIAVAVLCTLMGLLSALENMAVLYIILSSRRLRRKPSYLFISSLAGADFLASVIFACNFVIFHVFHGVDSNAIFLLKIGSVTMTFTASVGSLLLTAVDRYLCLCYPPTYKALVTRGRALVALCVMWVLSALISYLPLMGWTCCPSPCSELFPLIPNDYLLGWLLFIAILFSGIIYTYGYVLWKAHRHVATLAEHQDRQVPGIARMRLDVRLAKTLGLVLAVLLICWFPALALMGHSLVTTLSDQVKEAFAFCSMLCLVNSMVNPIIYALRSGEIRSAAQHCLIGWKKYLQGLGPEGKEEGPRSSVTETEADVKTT
Protocol: As a model of neuroinflammation, six CD1 male mice were injected ip (100-150 μl) with 10 mg/kg lipopolysaccharide (LPS), Escherichia coli strain O111:B4, or vehicle (saline) 5 days prior to PET. […] For blocking conditions, 2.0 mg/kg GW405833 was injected sc 30 min before tracer application. Depth of anesthesia was monitored by measuring respiratory frequency (SA Instruments, Inc., Stony Brook, USA). Body temperature was controlled by a rectal probe and kept at 37° C. by a thermocoupler and a heated air stream. Data were reconstructed in user-defined time frames with a voxel size of 0.3875×0.3875×0.775 mm^3 by 2-dimensional-ordered subsets expectation maximization (2D-OSEM). Random and single but no attenuation correction was applied. PET acquisitions were followed by a CT for anatomical orientation. Image files were analyzed with PMOD 3.5 software (PMOD Technologies Ltd., Zurich, Switzerland). Tissue radioactivity was expressed as standardized uptake values (SUV), that is, the decay-corrected radioactivity per cm^3 divided by the injected radioactivity dose per gram of body weight.

CB2 [7] = biological target: T2, CB2; assay type: in vivo, male Wistar rats; parameters: from tissue; host or cells: organs of male Wistar rats after iv tracer injection; details: baseline vs blocking with 1.5 mg/kg GW405833, Wistar rats
Protocol: For blocking conditions, GW405833 (1.5 mg/kg) was injected 30 min before the experiment (n=3). Animals were sacrificed under anesthesia with isoflurane by decapitation at 15 min post injection (p.i). Organs were collected, weighed and radioactivity measured in a gamma-counter. The accumulated radioactivity in the organs was expressed as part per thousand normalized injected dose per gram of tissue (% o normalized ID/g tissue).

CB2 [8] = biological target: T1, CB2; test: Autoradiography with post mortem spinal cord slices of ALS patients; assay type: binding; parameters: from tissue; host or cells: human post mortem ALS spinal cord sections; details: 0.2 nM tracer, absence or presence of 5 μM GW405833
Protocol: (§1) Rodent (mouse and rat) spleen tissue were embedded in TissueTek and cut into 20 μm-thick sections on a Cryostat HM 505 N (Microm) at −15° C. (blade and block). The slices were absorbed on SuperFrost Plus slides (Menzel) and stored at −80° until used. For the experiment, the slices were thawed on ice for 10 min before conditioning in incubation buffer (50 mM TRIS/HCl, 5% BSA, pH 7.4) on ice for 10 min. The slices were then dripped with 600 μL of radioligand solution (0.2 nM) in incubation buffer and incubated for 15 min at rt in a humid chamber. For blockade conditions, the slices were dripped with 600 μL of a mixture of radioligand and GW405833 (5 μM), a specific CB2 partial agonist. After incubation, the slices were washed with washing buffer (50 mM TRIS/HCl, 1% BSA, 5% EtOH, pH 7.4) for 2 min (2×) and with distilled water for 5 s (2×) on ice. After drying for 10 min at rt, the slices were exposed (30 min) to appropriate phosphor imager plates (Fuji) and the films were scanned in a BAS5000 reader (Fuji).
To evaluate the potential of our novel CB2 PET tracer in imaging ALS, post mortem spinal cord tissues from ALS patients were investigated in autoradiography experiments. Human post mortem ALS spinal cord tissue samples were embedded in TissueTek and cut into 20 μm-thick sections on a Cryostat. Autoradiography was performed as described in section “Example 5”.

CB2 [9] = test: In vitro autoradiography of rat and mouse spleen slices; assay type: binding; details: 0.2 nM radioligand; for binding to spleen slices, displaced by excess of GW405833: blockade 5 μM GW405833
Protocol: as §1

In the case of `CCCCCn1cc(C(=O)NC23CC4CC(CC(C4)C2)C3)c(=O)c2cccc(OC)c21` [KD2, N-(1-adamantyl)-1-pentyl-8-methoxy-4-oxo-1,4-dihydroquinoline-3-carboxamide], the Ki (CB2 [1]) is listed as 1.7 ± 2 nM, the “log D value at pH 7.4” value [2] is listed as 3.29 and the “blood-brain barrier (BBB) passage” value [3] is listed as “moderate”. For the same compound, the distribution in brain (CB2 [4]; in vivo PET experiments) was “relatively low” and the spleen uptake (CB2 [4]; rats, radiolabelled KD2) was “high spleen uptake”.

For `CCCCn1cc(C(=O)NC23CC4CC(CC(C4)C2)C3)c(=O)c2cccc(OC)c21` [RS-005, N-(1-adamantyl)-1-butyl-8-methoxy-4-oxo-1,4-dihydroquinoline-3-carboxamide], the Ki (CB2 [1]) was 3.3 ± 0.2 nM.

For `CCCCn1cc(C(=O)NC(C)(C)C)c(=O)c2cccc(OC)c21` [RS-006, N-(tert-butyl)-1-butyl-8-methoxy-4-oxo-1,4-dihydroquinoline-3-carboxamide], the Ki (CB2 [1]) was 8.2 ± 5.5 nM.

`CCCCn1cc(C(=O)NC2CCCC2)c(=O)c2cccc(OC)c21` [RS-007, 1-butyl-N-cyclopentyl-8-methoxy-4-oxo-1,4-dihydroquinoline-3-carboxamide] showed a Ki (CB2 [1]) of 19.7 ± 8.8 nM.

`CCCCn1cc(C(=O)NCC2CC2)c(=O)c2cccc(OC)c21` [RS-008, 1-butyl-N-(cyclopropylmethyl)-8-methoxy-4-oxo-1,4-dihydroquinoline-3-carboxamide] showed a Ki (CB2 [1]) of 78.8 ± 33.1 nM.

Work on `COc1cccc2c(=O)c(C(=O)NC(C)(C)C)cn(CCCF)c12` [RS-011, N-(tert-butyl)-1-(3-fluoropropyl)-8-methoxy-4-oxo-1,4-dihydroquinoline-3-carboxamide] yielded a Ki (CB2 [1]) of 750 ± 780 nM.

Work on `CCOCCn1cc(C(=O)NCCc2ccccc2)c(=O)c2cccc(OC)c21` [RS-022, 1-(2-ethoxyethyl)-8-methoxy-4-oxo-N-phenethyl-1,4-dihydroquinoline-3-carboxamide] yielded a Ki (CB2 [1]) of 360 ± 240 nM.

Compound `CCOCCn1cc(C(=O)NC23CC4CC(CC(O)(C4)C2)C3)c(=O)c2cccc(OC)c21` [RS-028, 1-(2-ethoxyethyl)-N-(3-hydroxyadamantan-1-yl)-8-methoxy-4-oxo-1,4-dihydroquinoline-3-carboxamide] has a Ki (CB2 [1]) of 0.8 ± 0.8 nM.

`CCOCCn1cc(C(=O)NC23CC4CC(CC(F)(C4)C2)C3)c(=O)c2cccc(OC)c21` [RS-030, 1-(2-ethoxyethyl)-N-(3-fluoroadamantyl)-8-methoxy-4-oxo-1,4-dihydroquinoline-3-carboxamide] gave a Ki (CB2 [1]) of 2.1 ± 1.5 nM.

`CCOCCn1cc(C(=O)NC23CC4CC(CC(C4)C2)C3)c(=O)c2cccc(OCCF)c21` [RS-122, N-(1-adamantanyl)-1-(2-ethoxyethyl)-8-(2-fluoroethoxy)-4-oxo-1,4-dihydroquinoline-3-carboxamide] gave a Ki (CB2 [1]) of 72 ± 102 nM.

Compound `COc1cccc2c(=O)c(C(=O)NC34CC5CC(CC(C5)C3)C4)cn(CCOCCF)c12` [RS-126, N-(1-adamantyl)-1-(2-(2-fluoroethoxy)ethyl)-8-methoxy-4-oxo-1,4-dihydroquinoline-3-carboxamide] has a Ki (CB2 [1]) of 1.2 ± 0.8 nM.

For `CCOCCn1cc(C(=O)NC23CC4CC(CC(C4)C2)C3)c(=O)c2cccc(OC)c21` [[^11C]RS-016, N-(1-adamantyl)-1-(2-ethoxyethyl)-8-methoxy-4-oxo-1,4-dihydroquinoline-3-carboxamide], the “log D pH 7.4” value [5] was 2.78, the “tracer accumulation in brain regions after LPS treatment compared to vehicle group” value (CB2 [6]; 5 days after 10 mg/kg LPS ip, whole brain, cortex, hippocampus, cerebellum) was “Increased” and the “tracer accumulation in brain regions after blockade” value (CB2 [6]; LPS mice, 2 mg/kg GW405833 sc 30 min before tracer) was “reduced in all brain regions”. The “share of total activity in spleen tissue due to specific CB2 binding” value (CB2 [7]) was 78%, the “binding to ALS spinal cord tissue” value (CB2 [8]) was “high specific binding” and the “unspecific binding on spleen slices” value (CB2 [9]) was “only little unspecific binding”. The “binding to spleen slices, displaced by excess of GW405833” value (CB2 [9]) was “high binding to spleen”.

In the case of `COc1cccc2c(=O)c(C(=O)NC34CC5CC(CC(C5)C3)C4)cn(CCOCC[18F])c12` [[^18F]RS-126], the logD [5] is reported as 1.99, the “unspecific binding on spleen slices” value (CB2 [9]) is reported as “only little unspecific binding” and the “binding to spleen slices, displaced by excess of GW405833” value (CB2 [9]) is reported as “high binding to spleen”.
